Measurements published in US11591306B2, “Vitamin E-based amphipathic compound, and use thereof” (Industry-University Cooperation Foundation Hanyang …, priority 2017, dated 2023).
“And” between values parts separate entries of the source, which are not always exact repeats. Identical values can stand only once. “Also recorded” adds a separate entry of the source.

Columns and labels:
[1] = Critical micelle concentration by hydrophobic fluorescence staining with diphenylhexatriene (DPH); format: physicochemical; details: aqueous solution
Procedure: A method of measuring CMC is not particularly limited, and may be a method widely known in the art, for example, fluorescent staining using diphenylhex riene (DPH).
(§1) To identify the properties of VEGs synthesized according to the synthetic methods of Preparation Examples 1 to […] molecular weights (M.W.) and critical micellar concentrations (CMCs) of VEGs, and the hydrodynamic radii (Rh) of formed micelles were measured.
(§2) Specifically, the CMCs were measured using hydrophobic fluorescence staining and diphenylhexatriene (DPH), and the hydrodynamic radii (Rh) of the micelles formed by each formulation were measured by dynamic light scattering (DLS).

[2] = molecular target: T1, β2AR (Homo sapiens, UniProt P07550); test: β2AR stability, [3H]-dihydroalprenolol (DHA) ligand binding; details: CMC+0.2 wt %, 10 days at room temperature
T1 construct: made in house; host or cells: Sf9 insect cells, baculovirus
Procedure: A receptor was expressed in Sf9 insect cells infected with Baculovirus and solubilized in 1% DDM. The DDM-solubilized receptor was purified by alprenolol-sepharose in the presence of 0.01% cholesteryl succinate (CHS). β2AR purified by DDM was diluted with a buffer containing DDM or VEGs (VEG-1, VEG-2, VEG-3 and VEG-5) to reach the final concentration of CMC+0.2 wt %. β2AR solubilized in each compound was stored for 10 days at room temperature, and the ligand binding ability of the receptor was measured at regular intervals by incubating the receptor with 10 nM radioactive [^3H]-dihydroalprenolol (DHA) for 30 minutes at room temperature. The mixture was loaded into a G-50 column, and a supernatant was collected using a certain amount of binding buffer (supplemented with […] pH 7.5, 100 mM NaCl, 0.5 mg/ml BSA). In addition, a 15 ml scintillation fluid was added. Receptor-binding [^3H]-DHA was measured using a scintillation counter (Beckman).

[3] = molecular target: T2, UapA (Emericella nidulans, UniProt Q07307, G411V); test: UapA extraction and thermal stability by fluorescence size exclusion chromatography (FSEC); set-up: made in house; details: for UapA integrity after thermal treatment (FSEC): 45° C. for 10 minutes; for Ability to extract and solubilize UapA (FSEC): before thermal treatment, 60 minutes on ice
Procedure: The membrane containing UapA was resuspended in a pH 8.0 PBS buffer containing 10 mM imidazole, 150 mM NaCl and 10% glycerol, and a protein concentration was measured. The membrane was adjusted to a concentration of 1 mg/ml, and a 1 ml aliquot was incubated for 60 minutes with each of 1.0 mL of DDM, LMNG, VEG-3 and VEG-5, on ice under stirring. A 100 uL aliquot was obtained from each tube and subjected to ultracentrifugation for 10 minutes at 150,000 g, and then fluorescent SEC (FSEC) was performed on each sample. The remaining soluble fractions were incubated for 10 minutes at 45° C. The thermally-treated samples were applied to FSEC to monitor the integrity of a transporter. FSEC was performed using a Superose6 column (GE Healthcare) equilibrated with a buffer containing an appropriate preparation (DDM, LMNG, VEG-3 or VEG-5).

[4] = molecular target: T3, β2AR-Gs complex (Homo sapiens, UniProt P07550); details: DDM-purified complex, previous study; cited from earlier work
T3 construct: made in house

[5] = molecular target: T3, β2AR-Gs complex; details: complex purified by DDM, previous study; cited from earlier work
[6] = molecular target: T4, MelBSt (melibiose permease) (Salmonella typhimurium, UniProt P30878); test: MelBSt extraction/solubilization and thermal stability, SDS-PAGE and Western blotting
T4 construct: made in house; host or cells: E. coli DW2 (ΔmelB and ΔlacZY), plasmid pK95ΔAHB/WT MelBSt/CH10
Procedure: Specifically, Salmonella typhimurium MelBSt (melibiose permease) having a 10 His tag at the C-terminus was expressed in E. coli DW2 cells (ΔmelB and ΔlacZY) using a pK95ΔAHB/WT MelBSt/CH10 plasmid. Cell growth and membrane preparation were carried out according to the methods disclosed in the paper written by A. S. Ethayathulla et al. (Nat. Commun. 2014, 5, 3009). A protein assay was performed using a Micro BCA kit (Thermo Scientific, Rockford, Ill.). MelBSt stability in VEGs or DDM was evaluated using the protocol disclosed in Nat. Methods 2010, 7, 1003-1008, written by P. S. Chae et al. A MelBSt-containing membrane sample (the final protein concentration was 10 mg/mL) was incubated in a solubilization buffer containing 1.5% (w/v) DDM or VEGs (50 mM sodium phosphate, pH 7.5, 200 mM NaCl, 10% glycerol, 20 mM melibiose) at two different temperatures (0 and 23° C.) for 90 minutes. To remove an insoluble material, ultracentrifugation was performed using a Beckman Optima™ MAX ultracentrifuge equipped with a TLA-100 rotor at 355,590 g and 4° C. for 30 minutes. […] The loaded samples were analyzed by SDS-15% PAGE, and then visualized by immunoblotting with a Penta-His-HRP antibody (Qiagen, Germantown, Md.).
To assess the thermal stability of MelBSt in various amphipathic molecules, MelBSt extracted with individual amphipathic molecules at 23° C. was subjected to additional thermal treatment at three different temperature (45, 55 and 65° C.) and ultracentrifugation, followed by SDS-15% PAGE and Western blotting. MelBSt was detected using a SuperSignalWest Pico chemiluminescent substrate by an ImageQuant LAS 4000 Biomolecular Imager (GE Healthcare Life Science).

[7] = Hydrodynamic radius of micelles by dynamic light scattering (DLS); format: physicochemical; details: at 1.0 wt %
Procedure: A method of measuring the radius of a micelle is not particularly limited, but may be a method well known in the art, for example, dynamic light scattering (DLS).
as §1, §2

[8] = molecular target: T2, UapA; test: UapA thermal stability, CPM assay; set-up: made in house; host or cells: Saccharomyces cerevisiae FGY217 membranes; details: CMC+0.2 wt %, 40° C. for 120 minutes
Procedure: UapAG411VΔ1-11 (hereinafter, referred to as “UapA”) was expressed in a Saccharomyces cerevisiae FGY217 strain by GFP fusion, and isolated into a sample buffer (20 mM Tris (pH 7.5), 150 mM NaCl, 0.03% DDM, 1 mM xanthine), which was performed according to the method disclosed in the paper written by J. Leung et al. (Mol. Menthr. Biol. 2013, 30, 32-42). The protein was concentrated to be approximately 10 mg/ml using a 100 kDa molecular weight cutoff filter (Millipore). The protein was diluted 1:150 with a buffer containing DDM, VEG (VEG-1, VEG-2, VEG-3, VEG-4 or VEG-5) or LMNG at CMC+0.2 wt % in Greiner 96. CPM dye (Invitrogen) stored in DMSO (Sigma) was diluted with a dye buffer (20 mM Tris (pH 7.5), 150 mM NaCl, 0.03% DDM, 5 mM EDTA), and 3 μL of the diluted dye was added to an individual protein sample. The reaction mixture was treated at a constant temperature of 40° C. for 120 minutes. A fluorescence emission intensity was monitored using a microplate spectrofluorometer set to excitation and emission wavelengths of 387 and 463 nm, respectively. The maximum fluorescence value was used to calculate the percentage of a protein folded during incubation. The relative amount of the folded protein was plotted over time using GraphPad Prism.

[9] = 1.5 wt %, extracted at 23° C., then 55° C.

T4 sequence (P30878 whole entry): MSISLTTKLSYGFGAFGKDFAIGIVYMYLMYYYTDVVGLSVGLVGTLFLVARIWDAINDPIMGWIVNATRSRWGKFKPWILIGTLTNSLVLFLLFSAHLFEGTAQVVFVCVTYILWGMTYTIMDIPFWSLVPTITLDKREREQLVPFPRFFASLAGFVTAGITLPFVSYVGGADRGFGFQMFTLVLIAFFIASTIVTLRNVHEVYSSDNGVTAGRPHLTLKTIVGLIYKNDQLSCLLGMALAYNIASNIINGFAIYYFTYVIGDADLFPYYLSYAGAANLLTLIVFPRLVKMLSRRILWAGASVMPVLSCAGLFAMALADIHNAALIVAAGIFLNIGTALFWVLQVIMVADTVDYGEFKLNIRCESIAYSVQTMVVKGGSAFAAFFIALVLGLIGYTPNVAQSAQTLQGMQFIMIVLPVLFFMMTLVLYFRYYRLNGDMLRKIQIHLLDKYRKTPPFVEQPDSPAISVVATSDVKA
T1 sequence (P07550 whole entry): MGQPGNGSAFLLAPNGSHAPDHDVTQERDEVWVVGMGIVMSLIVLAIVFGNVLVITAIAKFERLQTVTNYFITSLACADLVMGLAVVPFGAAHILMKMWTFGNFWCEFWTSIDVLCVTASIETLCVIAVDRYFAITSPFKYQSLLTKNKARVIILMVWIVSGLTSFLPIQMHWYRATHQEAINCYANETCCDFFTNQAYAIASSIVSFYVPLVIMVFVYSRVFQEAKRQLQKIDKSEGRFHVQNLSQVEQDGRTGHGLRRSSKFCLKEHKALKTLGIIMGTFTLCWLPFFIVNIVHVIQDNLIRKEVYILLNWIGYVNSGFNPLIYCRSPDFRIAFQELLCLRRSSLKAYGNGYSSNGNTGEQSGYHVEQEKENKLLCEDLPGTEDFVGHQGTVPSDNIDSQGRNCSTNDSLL
T2 sequence (Q07307 12-574 G411V): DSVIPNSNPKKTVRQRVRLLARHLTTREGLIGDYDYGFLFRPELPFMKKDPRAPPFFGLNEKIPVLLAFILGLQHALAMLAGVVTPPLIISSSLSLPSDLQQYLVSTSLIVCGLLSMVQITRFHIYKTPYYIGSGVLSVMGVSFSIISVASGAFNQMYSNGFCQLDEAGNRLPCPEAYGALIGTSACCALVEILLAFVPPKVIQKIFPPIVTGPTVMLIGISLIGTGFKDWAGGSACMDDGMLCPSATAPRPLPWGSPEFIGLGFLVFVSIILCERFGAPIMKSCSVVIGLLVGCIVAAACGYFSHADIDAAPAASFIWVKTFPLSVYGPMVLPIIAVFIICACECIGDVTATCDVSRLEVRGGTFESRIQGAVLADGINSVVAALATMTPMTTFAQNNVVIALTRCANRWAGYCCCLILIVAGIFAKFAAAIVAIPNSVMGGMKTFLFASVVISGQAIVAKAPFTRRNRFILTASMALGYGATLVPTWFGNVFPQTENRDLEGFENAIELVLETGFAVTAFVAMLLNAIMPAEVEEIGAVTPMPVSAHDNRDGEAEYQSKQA
T3 sequence (P07550 whole entry): as the sequence (P07550 whole entry) above
T3 sequence (P63092 whole entry partner): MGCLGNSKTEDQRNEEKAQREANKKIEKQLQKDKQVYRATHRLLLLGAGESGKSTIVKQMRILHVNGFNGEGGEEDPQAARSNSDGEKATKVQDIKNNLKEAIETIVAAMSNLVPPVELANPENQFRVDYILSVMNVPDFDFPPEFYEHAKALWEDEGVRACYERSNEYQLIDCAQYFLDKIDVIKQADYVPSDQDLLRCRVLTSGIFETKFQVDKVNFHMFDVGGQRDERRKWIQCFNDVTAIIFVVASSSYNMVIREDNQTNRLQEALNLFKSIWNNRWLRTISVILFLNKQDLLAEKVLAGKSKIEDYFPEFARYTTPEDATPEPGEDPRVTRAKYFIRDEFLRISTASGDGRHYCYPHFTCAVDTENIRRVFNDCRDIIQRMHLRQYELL
T3 sequence (P62873 whole entry partner): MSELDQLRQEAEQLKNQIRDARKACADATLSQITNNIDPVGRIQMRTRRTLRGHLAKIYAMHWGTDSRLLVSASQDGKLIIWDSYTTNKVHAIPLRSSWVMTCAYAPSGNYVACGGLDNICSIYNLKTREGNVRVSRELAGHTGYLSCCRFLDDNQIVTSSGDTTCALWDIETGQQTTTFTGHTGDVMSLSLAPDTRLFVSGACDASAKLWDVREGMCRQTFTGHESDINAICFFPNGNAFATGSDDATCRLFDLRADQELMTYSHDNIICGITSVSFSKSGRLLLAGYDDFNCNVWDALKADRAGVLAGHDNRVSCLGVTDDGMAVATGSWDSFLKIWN
T3 sequence (P59768 2-68 partner limits assumed): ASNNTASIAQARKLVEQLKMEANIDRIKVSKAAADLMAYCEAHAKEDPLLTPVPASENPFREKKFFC

SMILES | CMC [1] | CMC (wt %) [1] [wt %] | Long-term β2AR activity ([3H]-DHA binding) [2] | UapA integrity after thermal treatment (FSEC) [3] | Ability to extract and solubilize UapA (FSEC) [3] | Homogeneity of β2AR-Gs complex particles (EM) [4] | Integrity of the purified β2AR-Gs complex [5] | MelBSt extraction/solubilization efficiency from the cell membrane ([6]; 1.5 wt % detergent, 0° C. and 23° C., 90 minutes) | MelBSt solubilization efficiency ([6]; 1.5 wt %, extracted at 23° C., then 45° C.) | MelBSt solubilization efficiency [6, 9] | Rh (nm), hydrodynamic radius of micelles [7] [nm] | MelBSt solubilization ability ([6]; 1.5 wt %, extracted at 23° C., then 65° C.) | MelBSt transporter solubilization ability in the thermal stability experiment ([6]; elevated temperatures (overall)) | Ability to maintain UapA in a structurally stable state (CPM assay) [8]
CCCCCCCCCCCCO[C@@H]1O[C@H](CO)[C@@H](O[C@H]2O[C@H](CO)[C@@H](O)[C@H](O)[C@H]2O)[C@H](O)[C@H]1O [DDM, n-dodecyl-β-D-maltopyranoside, reference compound] | 0.17 mM and 0.170 mM | 0.0087 | rapid loss of activity over time | considerably degraded | superior to VEG-3 and VEG-5 | aggregation of particles | significant dissociation between the receptor and Gs protein even after 2 day-incubation | more efficient; also recorded: higher protein extraction efficiency than VEGs | almost similar efficiencies | significant decrease | 3.4 ± 0.0 |  |  | 
CCCCCCCCCCC(CCCCCCCCCC)(CO[C@@H]1O[C@H](CO)[C@@H](O[C@H]2O[C@H](CO)[C@@H](O)[C@H](O)[C@H]2O)[C@H](O)[C@H]1O)CO[C@@H]1O[C@H](CO)[C@@H](O[C@H]2O[C@H](CO)[C@@H](O)[C@H](O)[C@H]2O)[C@H](O)[C@H]1O [LMNG, reference compound] |  |  |  | considerably degraded | superior to VEG-3 and VEG-5 |  |  |  |  |  |  |  |  | 
Cc1c(C)c2c(c(C)c1OCC(CO[C@@H]1OC(CO)[C@@H](O)[C@H](O)C1O)(CO[C@@H]1OC(CO)[C@@H](O)[C@H](O)C1O)CO[C@@H]1OC(CO)[C@@H](O)[C@H](O)C1O)CCC(C)(CCCC(C)CCCC(C)CCCC(C)C)O2 (stereo partly shown) [VEG-1] | ~0.002 mM | ~0.0002 |  |  |  |  |  |  |  |  | 4.2 ± 0.1 |  |  | 
Cc1c(C)c2c(c(C)c1OCCOCC(CO[C@@H]1OC(CO)[C@@H](O)[C@H](O)C1O)(CO[C@@H]1OC(CO)[C@@H](O)[C@H](O)C1O)CO[C@@H]1OC(CO)[C@@H](O)[C@H](O)C1O)CCC(C)(CCCC(C)CCCC(C)CCCC(C)C)O2 (stereo partly shown) [VEG-2] | ~0.003 mM | ~0.0003 | consistently maintained during incubation for 10 days |  |  |  |  |  |  |  | 4.7 ± 0.1 |  |  | 
Cc1c(C)c2c(c(C)c1OCCC(CO[C@@H]1OC(CO)[C@@H](O[C@H]3OC(CO)[C@@H](O)[C@H](O)C3O)[C@H](O)C1O)CO[C@@H]1OC(CO)[C@@H](O[C@H]3OC(CO)[C@@H](O)[C@H](O)C3O)[C@H](O)C1O)CCC(C)(CCCC(C)CCCC(C)CCCC(C)C)O2 (stereo partly shown) [VEG-4] | ~0.003 mM | ~0.0003 |  |  |  |  |  |  |  | remained intact | 5.1 ± 0.1 | very excellent protein solubilization ability | higher transporter solubilization ability than DDM | 
Cc1c(C)c2c(c(C)c1O[C@@H]1OC(CO[C@@H]3OC(CO)[C@@H](O)[C@H](O)C3O)[C@@H](O[C@@H]3OC(CO)[C@@H](O)[C@H](O)C3O)[C@H](O[C@@H]3OC(CO)[C@@H](O)[C@H](O)C3O)C1O[C@@H]1OC(CO)[C@@H](O)[C@H](O)C1O)CCC(C)(CCCC(C)CCCC(C)CCCC(C)C)O2 (stereo partly shown) [VEG-5] | ~0.002 mM | ~0.0002 | rapid loss of activity over time | maintained protein integrity | LMNG and DDM were superior to VEG-3 and VEG-5 |  |  |  |  | remained intact | 3.9 ± 0.1 |  |  | excellent ability to maintain UapA in a structurally stable state
